According to US10428027B2, “Sulfinylphenyl or sulfonimidoylphenyl benzazepines” (Hoffmann La-Roche Inc., priority 2015, dated 2019):

What was measured:
[1] = biological target: T1, human TLR8 (Homo sapiens, UniProt Q9NR97); test: HEK-Blue human TLR8 cells, NF-κB SEAP reporter assay; format: cell-based; conditions: stimulation for 20 hours, SEAP reporter read at 640 nm
T1 construct: host or cells: HEK-Blue human TLR8 cells (HEK293-derived; own knowledge: stably transfected with the human TLR8 gene)
T1 sequence (Q9NR97 27-1041): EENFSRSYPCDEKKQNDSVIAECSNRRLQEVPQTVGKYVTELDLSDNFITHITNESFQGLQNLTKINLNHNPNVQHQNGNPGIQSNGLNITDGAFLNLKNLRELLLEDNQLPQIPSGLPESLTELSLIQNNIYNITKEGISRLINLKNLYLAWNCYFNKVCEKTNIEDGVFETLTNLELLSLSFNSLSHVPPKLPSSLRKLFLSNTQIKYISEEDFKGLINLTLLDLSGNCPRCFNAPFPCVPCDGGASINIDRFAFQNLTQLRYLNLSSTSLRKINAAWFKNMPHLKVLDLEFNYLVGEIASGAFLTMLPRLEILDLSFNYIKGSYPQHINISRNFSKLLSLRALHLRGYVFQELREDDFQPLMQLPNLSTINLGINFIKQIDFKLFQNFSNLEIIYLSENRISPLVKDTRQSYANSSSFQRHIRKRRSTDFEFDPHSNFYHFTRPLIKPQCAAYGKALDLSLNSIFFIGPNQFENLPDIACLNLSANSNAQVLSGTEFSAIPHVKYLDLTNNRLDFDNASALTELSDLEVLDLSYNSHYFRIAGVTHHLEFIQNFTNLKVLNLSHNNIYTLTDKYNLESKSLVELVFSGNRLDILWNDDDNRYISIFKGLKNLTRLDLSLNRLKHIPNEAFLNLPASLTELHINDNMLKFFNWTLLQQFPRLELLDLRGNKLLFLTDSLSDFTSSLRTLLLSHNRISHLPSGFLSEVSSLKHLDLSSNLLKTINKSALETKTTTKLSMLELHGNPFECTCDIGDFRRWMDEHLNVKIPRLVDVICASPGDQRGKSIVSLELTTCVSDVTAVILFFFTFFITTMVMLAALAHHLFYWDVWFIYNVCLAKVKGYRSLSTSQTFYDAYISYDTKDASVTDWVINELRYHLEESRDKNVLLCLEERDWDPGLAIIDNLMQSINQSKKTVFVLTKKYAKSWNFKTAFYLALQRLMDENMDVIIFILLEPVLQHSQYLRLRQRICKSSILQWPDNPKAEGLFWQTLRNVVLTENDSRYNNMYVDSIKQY
Source text: (§1) For TLR8 and TLR7 activity testing, HEK-Blue human TLR8 or TLR7 cells (Invivogen, San Diego, Calif., USA) are used, respectively. These cells are designed for studying the stimulation of human TLR8 or TLR7 by monitoring the activation of NF-κB. A SEAP (secreted embryonic alkaline phosphatase) reporter gene is placed under the control of the IFN-b minimal promoter fused to five NF-κB and AP-1-binding sites. Therefore the reporter expression is regulated by the NF-κB promoter upon stimulation of human TLR8 or TLR7 for 20 hours. The cell culture supernatant SEAP reporter activity was determined using Quanti Blue kit (Invivogen, San Diego, Ca, USA) at a wavelength of 640 nm, a detection medium that turns purple/blue in the presence of alkaline phosphatase.

[2] = biological target: T2, human TLR7 (Homo sapiens, UniProt Q9NYK1); test: HEK-Blue human TLR7 cells, NF-κB SEAP reporter assay; format: cell-based; conditions: stimulation for 20 hours, SEAP reporter read at 640 nm
T2 construct: host or cells: HEK-Blue human TLR7 cells (HEK293-derived; own knowledge: stably transfected with the human TLR7 gene)
T2 sequence (Q9NYK1 27-1049): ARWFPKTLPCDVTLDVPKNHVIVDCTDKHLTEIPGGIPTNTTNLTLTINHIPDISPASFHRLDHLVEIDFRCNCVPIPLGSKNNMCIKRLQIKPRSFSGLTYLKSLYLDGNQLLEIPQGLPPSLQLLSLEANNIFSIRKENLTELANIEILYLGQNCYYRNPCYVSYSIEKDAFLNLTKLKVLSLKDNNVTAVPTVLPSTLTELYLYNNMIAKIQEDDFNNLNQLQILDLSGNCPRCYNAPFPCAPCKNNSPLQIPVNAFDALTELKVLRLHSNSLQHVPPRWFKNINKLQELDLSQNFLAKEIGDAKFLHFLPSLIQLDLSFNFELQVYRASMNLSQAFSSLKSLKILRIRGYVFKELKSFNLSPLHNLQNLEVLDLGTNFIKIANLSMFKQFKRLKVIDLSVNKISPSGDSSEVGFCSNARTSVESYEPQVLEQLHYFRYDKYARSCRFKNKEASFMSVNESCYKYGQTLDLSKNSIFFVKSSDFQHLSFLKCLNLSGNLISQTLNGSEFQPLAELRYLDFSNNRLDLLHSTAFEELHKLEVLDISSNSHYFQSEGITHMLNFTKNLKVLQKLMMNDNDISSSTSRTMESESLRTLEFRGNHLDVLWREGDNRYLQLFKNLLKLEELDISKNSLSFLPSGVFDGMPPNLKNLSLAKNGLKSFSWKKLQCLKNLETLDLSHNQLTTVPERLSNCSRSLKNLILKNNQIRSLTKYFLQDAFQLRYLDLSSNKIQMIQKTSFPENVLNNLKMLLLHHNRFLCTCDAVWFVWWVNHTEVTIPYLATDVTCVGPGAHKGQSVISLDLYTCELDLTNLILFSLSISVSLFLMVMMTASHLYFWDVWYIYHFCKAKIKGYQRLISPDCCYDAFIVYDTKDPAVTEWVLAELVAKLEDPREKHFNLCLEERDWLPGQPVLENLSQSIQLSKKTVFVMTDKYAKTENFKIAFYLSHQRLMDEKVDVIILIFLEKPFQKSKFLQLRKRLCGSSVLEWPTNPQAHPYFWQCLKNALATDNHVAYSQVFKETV
Source text: as §1

Compound `CCCN(CCC)C(=O)C1=Cc2ccc(-c3cccc([S+]([O-])CC)c3)cc2N=C(N)C1` (stereo not shown) [Example 10, 2-Amino-8-(3-ethylsulfinylphenyl)-N,N-dipropyl-3H-1-benzazepine-4-carboxamide] has an EC50 [1] of 0.008 µM and an EC50 [2] of 16 µM.

`CCCN(CCC)C(=O)C1=Cc2ccc(-c3ccc([S+]([O-])CC)cc3)cc2N=C(N)C1` (stereo not shown) [Example 8, 2-Amino-8-(4-ethylsulfinylphenyl)-N,N-dipropyl-3H-1-benzazepine-4-carboxamide] was tested, and the EC50 [1] was 0.021 µM and the EC50 [2] was 23 µM.

With `CCCN(CCC)C(=O)C1=Cc2ccc(-c3ccc(S(=N)(=O)CC)cc3)cc2N=C(N)C1` (stereo not shown) [Example 9, 2-Amino-8-[4-(ethylsulfonimidoyl)phenyl]-N,N-dipropyl-3H-1-benzazepine-4-carboxamide] the EC50 [1] was 0.025 µM and the EC50 [2] was 32 µM.

Work on `CCCN(CCC)C(=O)C1=Cc2ccc(-c3cccc(S(C)(=N)=O)c3)cc2N=C(N)C1` (stereo not shown) [Example 7, 22-Amino-8-[3-(methylsulfonimidoyl)phenyl]-N,N-dipropyl-3H-1-benzazepine-4-carboxamide] yielded an EC50 [1] of 0.013 µM and an EC50 [2] of 15.4 µM.

`CCCN(CCC)C(=O)C1=Cc2ccc(-c3cncc(S(C)(=N)=O)c3)cc2N=C(N)C1` (stereo not shown) [Example 6, 2-Amino-8-[5-(methylsulfonimidoyl)-3-pyridyl]-N,N-dipropyl-3H-1-benzazepine-4-carboxamide] was tested, and the EC50 [1] was 0.028 µM and the EC50 [2] was 14.8 µM.

`CCCN(CCC)C(=O)C1=Cc2ccc(-c3ccc(S(C)(=N)=O)cc3)cc2N=C(N)C1` (stereo not shown) [Example 2, 2-Amino-8-[4-(methylsulfonimidoyl)phenyl]-N,N-dipropyl-3H-1-benzazepine-4-carboxamide] showed an EC50 [1] of 0.025 µM and an EC50 [2] of 25 µM.

`CCCN(CCC)C(=O)C1=Cc2ccc(-c3cccc([S+](C)[O-])c3)cc2N=C(N)C1` (stereo not shown) [Example 5, 2-Amino-8-(3-methylsulfinylphenyl)-N,N-dipropyl-3H-1-benzazepine-4-carboxamide] showed an EC50 [1] of 0.004 µM and an EC50 [2] of 12.1 µM.

For `CCCN(CCC)C(=O)C1=Cc2ccc(-c3cccc(S(=N)(=O)CC)c3)cc2N=C(N)C1` (stereo not shown) [Example 11, 2-Amino-8-[3-(ethylsulfonimidoyl)phenyl]-N,N-dipropyl-3H-1-benzazepine-4-carboxamide], the EC50 [1] was 0.015 µM and the EC50 [2] was 39 µM.

Work on `CCCN(CCC)C(=O)C1=Cc2ccc(-c3cncc([S+](C)[O-])c3)cc2N=C(N)C1` (stereo not shown) [Example 4, 2-Amino-8-(5-methylsulfinyl-3-pyridyl)-N,N-dipropyl-3H-1-benzazepine-4-carboxamide] yielded an EC50 [1] of 0.008 µM and an EC50 [2] of 2.4 µM.

For `CCCN(CCC)C(=O)C1=Cc2ccc(-c3ccc([S+](C)[O-])cc3)cc2N=C(N)C1` (stereo not shown) [Example 1, 2-Amino-8-(4-methylsulfinylphenyl)-N,N-dipropyl-3H-1-benzazepine-4-carboxamide], the EC50 [1] was 0.026 µM and the EC50 [2] was 19 µM.

`CCCN(CCC)C(=O)C1=Cc2ccc(-c3cccc(S(C)(=O)=NCCOCCO)c3)cc2N=C(N)C1` (stereo not shown) [Example 3, 2-Amino-8-[3-[N-[2-(2-hydroxyethoxy)ethyl]-S-methyl-sulfonimidoyl]phenyl]-N,N-dipropyl-3H-1-benzazepine-4-carboxamide] gave an EC50 [1] of 0.011 µM and an EC50 [2] of 55 µM.
